In patent US8883827B2, “Azole derivatives as WTN pathway inhibitors” (Oslo University Hospital HF, priority 2009, dated 2014):

How the values were obtained:
[1] = test system: panel of phosphatases and kinases; experiment: KinaseProfiler phosphatase and kinase panel (whole); type: biochemical; settings: 10 μM compound
[2] = test system: HeLa (cervical adenocarcinoma) cells; experiment: MTS cell growth assay (Example 27); type: cell-based; settings: 72 h
Procedure: (§1) 3000 cells were seeded on 96 well plates in quadruplicates for each sample. The following day, cell culture medium was mixed with compound No. 1 in various concentrations or with 0.5% DMSO vehicle (control) and added to the wells.
(§2) Eight wells of seeded control cells, defining incubation time 0 (t0), were incubated with 20 μl substrate in 100 μl phenol-free D-MEM (Invitrogen) for 3 hours, as described in the CellTiter 96® AQueous Non-Radioactive Cell Proliferation Assay (MTS) protocol (Promega). The A490 value was recorded.
(§3) Samples were measured after 72 hours. The following formula was used to determine the single well relative A490 sample values: ((Sample A490−Average A490 to)×100)/(Average A490 0.5% DMSO control−Average A490 t0).

MeWo (melanoma) cells = experiment: MTS cell growth assay (Example 27); type: cell-based; settings: 72 h
Procedure: as §1, §2, §3

[3] = test system: THLE2 (hepatocytes) cells; experiment: MTS cell growth assay (Example 27); type: cell-based; settings: 72 h
Procedure: as §1, §2, §3

CaMKI(h) = biological target: T1, CaMKI(h) (Homo sapiens, UniProt Q14012); experiment: Kinase screen; type: biochemical; settings: 0.1% DMSO control = 100%
T1 construct: purchased Millipore (KinaseProfiler service)

Hh (Shh) pathway = experiment: Shh Light II (Gli1-Luc) reporter assay; settings: 1 or 10 μM, 48 h, 50% Shh-CM
Excerpt: 1) a stable reporter line for sonic hedgehog pathway, Shh Light II cells (Glil-Luc-purchased from ATCC and maintained according to suppliers recommendations);

LMPTP-B(h) = biological target: T2, LMPTP-B(h) (Homo sapiens, UniProt P24666); experiment: Phosphatase screen; type: biochemical; settings: 0.1% DMSO control = 100%
T2 construct: purchased Millipore (KinaseProfiler service)

IRAK4(h) = biological target: T3, IRAK4(h) (Homo sapiens, UniProt Q9NWZ3); experiment: Kinase screen; type: biochemical; settings: 0.1% DMSO control = 100%
T3 construct: purchased Millipore (KinaseProfiler service)

CDK2/cyclinA(h) = biological target: T4, CDK2/cyclinA(h) (Homo sapiens, UniProt P24941); experiment: Kinase screen; type: biochemical; settings: 0.1% DMSO control = 100%
T4 construct: purchased Millipore (KinaseProfiler service)

[4] = test system: LiCl-induced activation of canonical Wnt signaling; experiment: LiCl-induced ST-Luc reporter assay in HEK293 cells; type: cell-based; settings: Homo sapiens; HEK293, 25 mM LiCl, 24 h; read-out: IC50, antagonism of LiCl-induced activation of canonical Wnt signaling
Procedure: Transfection of HEK293 cells was performed as described in Example 22, but using 0.23 μg NF-κB-Luciferase and 0.02 μg Renilla. […] All treated reporter cells were finally lysed and the firefly luciferase and Renilla activities were measured on a 20/20n Luminometer (Turner BioSystems) as described in the Dual-Glo™ Luciferase Assay System Technical Manual (Promega).

PKBα(h) = biological target: T5, PKBα(h) (Homo sapiens, UniProt P31749); experiment: Kinase screen; type: biochemical; settings: 0.1% DMSO control = 100%
T5 construct: purchased Millipore (KinaseProfiler service)

JNK3(h) = biological target: T6, JNK3(h) (Homo sapiens, UniProt P53779); experiment: Kinase screen; type: biochemical; settings: 0.1% DMSO control = 100%
T6 construct: purchased Millipore (KinaseProfiler service)

PTPb(h) = biological target: T7, PTPb(h) (Homo sapiens, UniProt P23467); experiment: Phosphatase screen; type: biochemical; settings: 0.1% DMSO control = 100%
T7 construct: purchased Millipore (KinaseProfiler service)

ASK1(h) = biological target: T8, ASK1(h) (Homo sapiens, UniProt Q99683); experiment: Kinase screen; type: biochemical; settings: 0.1% DMSO control = 100%
T8 construct: purchased Millipore (KinaseProfiler service)

KDR(h) = biological target: T9, KDR(h) (Homo sapiens, UniProt P35968); experiment: Kinase screen; type: biochemical; settings: 0.1% DMSO control = 100%
T9 construct: purchased Millipore (KinaseProfiler service)

T1 sequence (Q14012 whole entry): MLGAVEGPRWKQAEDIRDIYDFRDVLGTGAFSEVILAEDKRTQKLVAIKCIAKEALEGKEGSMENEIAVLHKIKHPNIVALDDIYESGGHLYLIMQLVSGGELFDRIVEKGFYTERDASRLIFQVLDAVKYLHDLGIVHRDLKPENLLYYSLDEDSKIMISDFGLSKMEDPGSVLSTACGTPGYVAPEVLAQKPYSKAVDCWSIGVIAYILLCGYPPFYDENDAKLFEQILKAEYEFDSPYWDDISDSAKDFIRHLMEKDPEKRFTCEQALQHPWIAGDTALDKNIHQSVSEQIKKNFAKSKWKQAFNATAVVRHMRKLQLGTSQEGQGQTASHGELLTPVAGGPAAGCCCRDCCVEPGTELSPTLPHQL
T3 sequence (Q9NWZ3 whole entry): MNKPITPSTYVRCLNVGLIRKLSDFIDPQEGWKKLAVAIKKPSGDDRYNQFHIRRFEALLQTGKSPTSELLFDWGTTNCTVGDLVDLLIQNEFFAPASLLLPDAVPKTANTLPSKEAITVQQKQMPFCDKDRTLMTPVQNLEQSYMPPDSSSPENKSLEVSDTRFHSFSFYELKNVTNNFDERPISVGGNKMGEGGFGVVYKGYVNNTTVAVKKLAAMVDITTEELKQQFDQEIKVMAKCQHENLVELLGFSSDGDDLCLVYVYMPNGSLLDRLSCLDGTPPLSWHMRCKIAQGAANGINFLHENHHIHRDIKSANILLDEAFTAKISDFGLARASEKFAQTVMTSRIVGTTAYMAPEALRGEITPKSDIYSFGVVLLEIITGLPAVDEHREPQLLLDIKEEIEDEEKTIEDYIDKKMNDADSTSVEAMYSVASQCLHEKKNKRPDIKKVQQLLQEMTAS
T8 sequence (Q99683 whole entry): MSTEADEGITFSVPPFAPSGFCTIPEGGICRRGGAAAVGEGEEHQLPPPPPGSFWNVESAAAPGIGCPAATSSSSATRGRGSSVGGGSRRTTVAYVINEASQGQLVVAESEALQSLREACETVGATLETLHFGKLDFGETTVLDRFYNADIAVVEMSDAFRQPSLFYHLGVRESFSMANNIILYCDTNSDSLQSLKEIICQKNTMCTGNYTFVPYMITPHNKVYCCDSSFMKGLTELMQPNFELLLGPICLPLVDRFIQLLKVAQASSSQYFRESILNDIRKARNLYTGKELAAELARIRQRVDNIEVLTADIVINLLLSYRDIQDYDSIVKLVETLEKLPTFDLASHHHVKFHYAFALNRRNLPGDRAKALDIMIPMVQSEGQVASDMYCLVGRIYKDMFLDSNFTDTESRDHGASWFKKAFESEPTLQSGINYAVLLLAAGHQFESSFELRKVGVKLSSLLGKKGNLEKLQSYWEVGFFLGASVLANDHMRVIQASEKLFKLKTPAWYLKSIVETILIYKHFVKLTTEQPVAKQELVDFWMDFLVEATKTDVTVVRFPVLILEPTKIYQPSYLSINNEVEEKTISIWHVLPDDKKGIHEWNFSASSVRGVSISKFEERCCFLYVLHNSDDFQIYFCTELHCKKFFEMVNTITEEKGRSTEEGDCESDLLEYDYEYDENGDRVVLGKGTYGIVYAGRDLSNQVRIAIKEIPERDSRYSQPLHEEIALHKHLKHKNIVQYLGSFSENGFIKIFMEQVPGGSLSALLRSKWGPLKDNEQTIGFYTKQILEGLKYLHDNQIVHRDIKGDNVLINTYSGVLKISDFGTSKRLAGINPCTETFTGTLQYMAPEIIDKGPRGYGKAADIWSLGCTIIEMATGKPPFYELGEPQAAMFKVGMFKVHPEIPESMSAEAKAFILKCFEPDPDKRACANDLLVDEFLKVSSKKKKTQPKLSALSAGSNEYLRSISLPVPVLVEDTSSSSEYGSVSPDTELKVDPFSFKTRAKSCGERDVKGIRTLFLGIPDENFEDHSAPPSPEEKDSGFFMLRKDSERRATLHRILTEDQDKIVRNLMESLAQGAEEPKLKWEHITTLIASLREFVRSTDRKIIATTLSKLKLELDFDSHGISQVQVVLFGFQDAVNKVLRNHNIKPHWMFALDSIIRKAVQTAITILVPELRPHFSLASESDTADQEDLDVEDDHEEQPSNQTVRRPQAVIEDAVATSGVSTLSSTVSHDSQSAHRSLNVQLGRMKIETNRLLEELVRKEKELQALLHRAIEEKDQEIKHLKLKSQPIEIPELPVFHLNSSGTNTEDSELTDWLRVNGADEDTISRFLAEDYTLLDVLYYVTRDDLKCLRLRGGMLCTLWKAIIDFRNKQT
T7 sequence (P23467 23-1997): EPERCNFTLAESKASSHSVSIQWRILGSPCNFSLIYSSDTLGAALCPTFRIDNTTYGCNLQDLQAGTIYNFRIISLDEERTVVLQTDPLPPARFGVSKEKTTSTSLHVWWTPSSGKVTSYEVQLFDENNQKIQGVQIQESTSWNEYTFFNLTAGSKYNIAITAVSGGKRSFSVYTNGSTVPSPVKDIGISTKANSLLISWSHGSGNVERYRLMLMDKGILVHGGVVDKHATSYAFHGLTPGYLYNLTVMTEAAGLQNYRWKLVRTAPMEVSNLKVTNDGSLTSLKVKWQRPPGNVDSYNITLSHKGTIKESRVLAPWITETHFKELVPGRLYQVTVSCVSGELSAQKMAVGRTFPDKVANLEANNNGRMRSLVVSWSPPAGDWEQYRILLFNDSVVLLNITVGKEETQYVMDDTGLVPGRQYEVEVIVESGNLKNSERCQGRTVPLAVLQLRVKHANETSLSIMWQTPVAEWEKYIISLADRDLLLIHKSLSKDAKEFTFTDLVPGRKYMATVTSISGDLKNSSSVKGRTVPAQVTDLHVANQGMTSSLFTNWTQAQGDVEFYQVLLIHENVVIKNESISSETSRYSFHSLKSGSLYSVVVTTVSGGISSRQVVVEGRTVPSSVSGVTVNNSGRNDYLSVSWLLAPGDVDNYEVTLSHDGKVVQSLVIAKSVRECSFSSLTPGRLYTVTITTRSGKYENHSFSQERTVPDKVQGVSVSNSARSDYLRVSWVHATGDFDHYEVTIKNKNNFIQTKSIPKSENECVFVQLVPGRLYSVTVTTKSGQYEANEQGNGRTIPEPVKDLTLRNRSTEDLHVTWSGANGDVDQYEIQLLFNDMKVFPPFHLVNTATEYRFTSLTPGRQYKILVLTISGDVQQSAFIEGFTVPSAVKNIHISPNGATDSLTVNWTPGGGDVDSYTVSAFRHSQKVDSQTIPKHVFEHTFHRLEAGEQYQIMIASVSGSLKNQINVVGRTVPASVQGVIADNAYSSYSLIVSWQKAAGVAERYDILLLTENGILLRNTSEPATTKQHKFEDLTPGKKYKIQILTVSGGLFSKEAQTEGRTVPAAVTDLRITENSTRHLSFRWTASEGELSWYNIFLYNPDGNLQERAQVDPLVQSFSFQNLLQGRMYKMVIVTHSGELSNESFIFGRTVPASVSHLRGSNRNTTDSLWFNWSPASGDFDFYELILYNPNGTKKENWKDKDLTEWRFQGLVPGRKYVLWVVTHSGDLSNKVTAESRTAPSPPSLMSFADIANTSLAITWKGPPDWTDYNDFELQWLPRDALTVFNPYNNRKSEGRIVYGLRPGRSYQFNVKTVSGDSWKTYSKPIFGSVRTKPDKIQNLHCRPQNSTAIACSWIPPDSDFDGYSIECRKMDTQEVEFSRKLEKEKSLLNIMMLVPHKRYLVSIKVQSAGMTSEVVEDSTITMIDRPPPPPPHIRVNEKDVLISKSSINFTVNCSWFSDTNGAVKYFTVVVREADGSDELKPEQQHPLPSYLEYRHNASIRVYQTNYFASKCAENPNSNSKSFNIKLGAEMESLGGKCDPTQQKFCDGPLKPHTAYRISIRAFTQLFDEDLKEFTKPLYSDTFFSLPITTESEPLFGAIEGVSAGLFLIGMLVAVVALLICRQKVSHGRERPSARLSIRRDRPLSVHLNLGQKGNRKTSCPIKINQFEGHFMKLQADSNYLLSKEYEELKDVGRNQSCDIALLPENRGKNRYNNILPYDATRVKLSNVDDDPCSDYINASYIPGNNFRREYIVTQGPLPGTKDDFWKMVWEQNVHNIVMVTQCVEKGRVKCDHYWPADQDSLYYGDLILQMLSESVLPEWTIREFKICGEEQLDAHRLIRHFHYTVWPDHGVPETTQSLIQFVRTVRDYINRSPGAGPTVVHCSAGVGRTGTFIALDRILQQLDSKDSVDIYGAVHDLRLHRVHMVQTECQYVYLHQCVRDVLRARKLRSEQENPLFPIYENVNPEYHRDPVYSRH
T2 sequence (P24666 1-158 isoform P24666-2): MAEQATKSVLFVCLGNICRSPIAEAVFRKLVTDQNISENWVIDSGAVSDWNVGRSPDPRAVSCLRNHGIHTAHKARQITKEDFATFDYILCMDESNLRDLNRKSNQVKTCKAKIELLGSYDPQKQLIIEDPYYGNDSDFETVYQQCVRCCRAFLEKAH
T5 sequence (P31749 whole entry): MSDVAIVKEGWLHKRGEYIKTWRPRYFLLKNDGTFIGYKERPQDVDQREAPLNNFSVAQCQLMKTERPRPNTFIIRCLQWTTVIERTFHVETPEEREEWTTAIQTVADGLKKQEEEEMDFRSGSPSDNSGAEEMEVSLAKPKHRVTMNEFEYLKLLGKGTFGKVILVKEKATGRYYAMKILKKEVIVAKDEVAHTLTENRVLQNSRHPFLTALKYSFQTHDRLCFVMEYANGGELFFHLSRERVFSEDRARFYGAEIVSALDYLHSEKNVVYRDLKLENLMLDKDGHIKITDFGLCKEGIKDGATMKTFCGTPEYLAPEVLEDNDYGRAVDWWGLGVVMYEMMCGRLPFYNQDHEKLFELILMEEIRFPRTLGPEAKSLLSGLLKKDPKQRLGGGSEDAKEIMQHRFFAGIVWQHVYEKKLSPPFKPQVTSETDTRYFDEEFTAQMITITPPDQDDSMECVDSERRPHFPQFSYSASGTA

Structure (SMILES): COc1ccc(-n2c(SCc3nc(-c4ccc(C)cc4)no3)nnc2-c2ccncc2)cc1 [Compound 1]
- inhibition of kinase or phosphatase activity [1]: No extensive inhibition
- growth reduction [2]: only a minor growth reduction
- growth reduction (MeWo (melanoma) cells): only a minor growth reduction
- growth reduction [3]: only a minor growth reduction
- activity at 10 µM (CaMKI(h)): 97%
- effect against the Hh (Shh) pathway (Hh (Shh) pathway): no substantial activating or inhibitory effect
- activity at 10 µM (LMPTP-B(h)): 100%
- activity at 10 µM (IRAK4(h)): 98%
- activity at 10 µM (CDK2/cyclinA(h)): 106%
- IC50 [4]: 420 nM
- activity at 10 µM (PKBα(h)): 79%
- activity at 10 µM (JNK3(h)): 93%
- activity at 10 µM (PTPb(h)): 106%
- activity at 10 µM (ASK1(h)): 106%
- activity at 10 µM (KDR(h)): 104%
